Data published in patent US20250325548A1, “TUMOR SUPPRESSOR P73 TRANSCRIPTIONALLY REGULATES C-FLIP TO IMPEDE ITS PRIMING OF EXTRINSIC APOPTOSIS WHILE AN EXAMPLE SWITCHER COMPOUND CB-7587351 DEGRADES C-FLIP PROTEIN” (Brown University, priority 2024, published 2025).
Where a SMILES comes first, the peptide text is derived from it. The star is where a group is joined. Cbz = O=C(OCc1ccccc1)*; CH2F = FC*

Assays:
[1] = target: T1, p73 (Homo sapiens, UniProt O15350); conditions: via releasing it from the inhibitory complex of mutant p53; cited from earlier work
T1 sequence (O15350 1-636): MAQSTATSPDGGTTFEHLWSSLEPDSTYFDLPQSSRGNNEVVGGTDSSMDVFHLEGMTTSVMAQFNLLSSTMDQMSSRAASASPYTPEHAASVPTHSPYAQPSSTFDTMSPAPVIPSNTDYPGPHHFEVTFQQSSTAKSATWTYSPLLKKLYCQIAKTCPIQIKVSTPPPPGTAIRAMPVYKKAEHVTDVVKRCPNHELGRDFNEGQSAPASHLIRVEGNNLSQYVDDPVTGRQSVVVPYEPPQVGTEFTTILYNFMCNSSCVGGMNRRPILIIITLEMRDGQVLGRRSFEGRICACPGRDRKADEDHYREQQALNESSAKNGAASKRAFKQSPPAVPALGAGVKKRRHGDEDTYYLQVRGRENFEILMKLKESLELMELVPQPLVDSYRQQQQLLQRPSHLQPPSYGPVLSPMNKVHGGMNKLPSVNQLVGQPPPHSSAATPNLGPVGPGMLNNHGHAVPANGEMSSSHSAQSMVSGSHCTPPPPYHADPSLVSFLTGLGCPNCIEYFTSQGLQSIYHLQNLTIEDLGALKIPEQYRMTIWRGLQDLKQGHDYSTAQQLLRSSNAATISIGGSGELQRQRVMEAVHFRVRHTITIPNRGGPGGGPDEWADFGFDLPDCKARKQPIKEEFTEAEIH

[2] = system: cancer cells; assay: Sub-G1 flow cytometric assay in cancer cells; format: cell-based, human
Procedure: Flow Cytometry Assay: Briefly, cells were fixed with 70% ethanol, and stained with Propidium Iodide (PI), then subjected for CytoFLEX to measure DNA content of the PI-stained cells. Cell cycle distribution was analyzed with Flowjo.

[3] = system: p53 target genes; assay: Real-time RT-PCR of p53 target genes; format: cell-based, human; conditions: SW480 cells, 3 hr, normalized to GAPDH
[4] = system: caspase-3; assay: Western blot of cleaved caspase-3; format: cell-based, human; conditions: cancer cells, early time points
Procedure: (§1) Western Blot analysis: An equal amount of protein in the cell lysate was loaded in each well and electrophoresed through 4-12% SDS-PAGE then transferred to a PVDF membrane. The primary antibodies indicated in the FIGs. were incubated with the PVDF membrane after transfer in blocking buffer at 4° C. overnight. Antibody binding was detected on PVDF with appropriate IR Dye-secondary antibodies (LI-COR Biosciences, USA) by the ODYSSEY infrared imaging system or with ECL Reagent (Thermo Fisher Scientific, catalog no. 32106) chemiluminescence reaction with appropriate horseradish peroxidase (HRP)-conjugated secondary antibodies (Thermo Fisher Scientific, catalog no. no. 31460 for Goad anti-rabbit IgG and catalog no. 31430 for Goat anti-mouse IgG) by the Syngene imaging system.

[5] = system: γ-H2AX; assay: γ-H2AX phosphorylation (DNA damage) in SW480 cells; format: cell-based, human
[6] = system: PARP; assay: Western blot of cleaved PARP with TRAIL combination; format: cell-based, human; conditions: cancer cells
Procedure: as §1

[7] = system: cancer cells; assay: Cell viability and synergy assay with TRAIL in cancer cells; format: cell-based, human; conditions: tested doses
Procedure: (§2) CellTiter-Glo luminescent Cell viability assay: Cells were seeded on 96-well plates with a density of 3000 cells/well and treated with small molecule compounds as desired for 72 hours. Cell viability was measured by CellTiter-Glo bioluminescence (Promega, catalog no. G7572), and analyzed using an IVIS imager.
(§3) Statistical analysis: Statistical analyses were performed using the student's t-test or Anova with GraphPad Prism software. Statistical significance was determined by p<0.05. Combination indices were calculated using the Chou-Talalay method with CompuSyn software.

[8] = system: p53-mutant cancer cells; assay: Apoptosis by PARP cleavage and Annexin V after caspase knockdown; format: cell-based, human; conditions: CB-7587351 at 10 μM
Procedure: Annexin V levels were measured using RealTime-Glo™ Annexin V assay kit (Promega). The bioluminescent Annexin V was analyzed using an IVIS imager.
as §1
Knockdown of gene expression by siRNA: Cells were transfected with siRNA using lipofectamine RNAiMAX (Life Technologies, catalog no. 13778075) as described in the protocol from the manufacturer.

[9] = system: normal cells; assay: Cell viability and synergy assay with TRAIL in normal cells; format: cell-based; conditions: tested doses
Procedure: as §2, §3

[10] = system: panel of cancer cell lines; assay: CellTiter-Glo cell viability, panel of cancer cell lines versus MRC-5; format: cell-based, human; conditions: cancer cells compared with normal fibroblast MRC-5 cells, 48 hr
Procedure: […] Cell viability was measured by CellTiter-Glo bioluminescence (Promega, catalog no. G7572), and analyzed using an IVIS imager.

[11] = system: colorectal cancer cells; assay: Colony formation assay; format: cell-based, human
[12] = system: c-FLIP; assay: Real-time PCR of c-FLIP mRNA in cancer cells; format: cell-based, human; conditions: cancer cells treated with CB-7587351, Real-time PCR
[13] = system: caspase-3/7; assay: Caspase-3/7 activity assay; format: cell-based, human; conditions: DLD-1 cancer cells, 36 hours
[14] = system: DNA; assay: DNA-intercalation test; conditions: not shown
[15] = system: p53 targets; assay: Western blot of endogenous p53 targets; format: cell-based, human
Procedure: as §1

[16] = system: p53 reporter, PG13-luc; assay: PG13-luc p53-reporter bioluminescence assay; format: cell-based, human
Procedure: Materials and Methods; High-Throughput Screening: Functional cell-based screening for small molecules that increase p53-transcriptional activity was performed as described in the previous study using noninvasive bioluminescence imaging in human colorectal cancer cells which stably express a p53 reporter, PG13-luc. […] DMSO treatment was used as a negative control in each screened plate. Compounds that increased p53-responsive bioluminescence were selected for secondary screening.

[17] = system: c-FLIP; assay: Western blot of c-FLIP protein levels in cancer cells; format: cell-based, human
Procedure: as §1

O=C(CSC1=NCCS1)c1ccc(O)c(O)c1 [RETRA, 2-(4,5-Dihydro-1,3-thiazol-2-ylthio)-1-(3,4-dihydroxyphenyl)-1-ethanone]
activation of p73 [1]: activate p73

COC(=O)C[C@H](NC(=O)[C@H](C)NC(=O)[C@@H](NC(=O)OCc1ccccc1)C(C)C)C(=O)CF [z-VAD-FMK, reference compound] (Cbz-Val-Ala-Asp(OMe)-CH2F)
CB-7587351-induced apoptosis with pan-caspase inhibitor (sub-G1 assay) ([2]; SW480, HT29, HCT116 p53-/- and HCT116): blocked the effect of CB-7587351 on apoptosis

CN1CCN(C(=O)/C=C/c2ccc([N+](=O)[O-])o2)CC1 [NSC59984, (E)-1-(4-Methyl-1-piperazinyl)-3-(5-nitro-2-furyl)-2-propen-1-one]
activation of p73 [1]: activate p73

CCOc1cccc2c(C)nc(Nc3nc(=O)c4c([nH]3)CCCC4)nc12 [CB-7587351, 2-(8-Ethoxy-4-methyl-2-quinazolinylamino)-5,6,7,8-tetrahydro-4 (1H)-quinazolinone]
selected p53 targets at the mRNA level [3]: slight increase
cleaved caspase-3 [4]: increase
sub-G1 content and Annexin V levels with overexpression of p73 ([2]; Ad-p73 infection, 48 hr (sub-G1), 24 hours (Annexin)): enhanced the anti-tumor effect
sub-G1 content and PARP cleavage after knockdown of p73 ([2]; DLD-1 cells, 72 hr (sub-G1), 48 h (PARP)): abrogated the effect
sub-G1 content ([2]; cancer cells, 48 hr): increase in sub-G1 content
phosphorylation of γ-H2AX ([5]; SW480 cells, increased dose, early time points): No phosphorylation
genotoxicity ([5]; conclusion from γ-H2AX and DNA-intercalation): little or no genotoxicity
TRAIL-induced PARP cleavage [6]: enhanced TRAIL-induced PARP cleavage
synergy with TRAIL on cell viability [7]: synergized with TRAIL
apoptosis (PARP cleavage, Annexin V) after knockdown of caspase-8 [8]: prevented apoptosis
synergy with TRAIL on cell viability [9]: not in normal cells
IC50s, cell viability [10]: much lower in cancer cells than those in normal fibroblast MRC-5 cells
colony formation [11]: dramatically reduced
c-FLIP expression at the mRNA level [12]: no significant changes
caspase-3/7 activity [13]: increase
DNA-intercalation [14]: no DNA-intercalation was detected
p21 and puma expression after knockdown of p73 ([15]; DLD-1 cells, 8 hr): blocked the activation effect
endogenous p53 targets at the protein level ([15]; p53-mutant and wild colorectal cancer cell lines, 16 hr): increased
p53-responsive bioluminescence ([16]; SW480, DLD1, HCT116 p53-/- and HCT116, dose dependent): strongly induced
effect on PG13-luc reporter with overexpression of p73-β or wild-type p53 ([16]; adenovirus infection, then CB-7587351 16 hr): further enhanced
PG-13-luciferase reporter after siRNA targeting p73 ([16]; p53-KO cancer cells): attenuated
c-FLIP degradation after knockdown of CHIP or ITCH ([17]; SW480, siRNA 48 hr then CB-7587351 8 hr): could not rescue c-FLIP
p73-mediated upregulation of c-FLIP protein ([17]; SW480 cells with overexpression of p73, treatment 8 hr): reduced p73-mediated upregulation of c-FLIP protein
c-FLIP protein expression ([17]; p53-mutant and p53 wild-type cancer cells, Western blot): reduced c-FLIP protein expression

CC(C)C[C@@H](C=O)NC(=O)[C@H](CC(C)C)NC(=O)[C@H](CC(C)C)NC(=O)OCc1ccccc1 [MG132, reference compound] (Cbz-Leu-Leu-Leu-aldehyde)
c-FLIP protein under CB-7587351 plus proteasome inhibitor ([17]; cancer cells co-treated with MG132 and CB-7587351): rescued c-FLIP from the CB-7587351-induced protein degradation
